Values of other authors in patent US8821924B2, “Rhein or diacerein compositions” (Wockhardt Ltd., priority 2007, dated 2014).

Details: water, alcohols, acetone, dichloromethane and chloroform

solubility in solvents: practically insoluble
Structure (SMILES): CC(=O)Oc1cccc2c1C(=O)c1c(OC(C)=O)cc(C(=O)O)cc1C2=O [Diacerein, 4,5-bis(acetyloxy)9,10-dihydro-4,5-dihydroxy-9,10-dioxo-2-anthracenecarboxylic acid]
